Measurements reported in patent publication US12427134B2, “Methods of reducing the risk of cardiovascular events in a subject with atrial fibrillation and/or atrial flutter” (priority 2019, dated 2025).

Test system: hypertriglyceridemic patients with cardiovascular disease or at high risk for cardiovascular disease
Assay: REDUCE-IT: treatment-emergent adverse events and serious adverse events (safety population)
[1] = BMI ≥25 to <30 kg/m^2 (N = 1427)
[2] = No Ezetimibe at baseline (N = 3827)
[3] = Region Eastern Europe (N = 1053)

Experimental: Specification of Variables and Procedures: Safety assessments included adverse events, clinical laboratory measurements (chemistry, hematology), 12-lead ECGs, vital signs (systolic and diastolic blood pressure, heart rate, respiratory rate, and body temperature), weight, waist circumference, and physical examinations as per Study Procedures in Table 1. […] All laboratory test results were evaluated by the investigator as to their clinical significance. Any observations at physical examinations or laboratory values considered by the investigator to be clinically significant were considered an adverse event.
An adverse event can therefore be any unfavorable and/or unintended sign (including an abnormal laboratory finding), symptom, or disease temporally associated with the use of an investigational medication product, whether or not related to the investigational medication product. All adverse events, including observed or volunteered problems, complaints, or symptoms, were recorded on the appropriate CRF. Each adverse event was evaluated for duration, intensity, and causal relationship with the study medication or other factors.
Adverse events, which included clinical laboratory test variables, were monitored from the time of informed consent until study participation was complete. Patients were instructed to report any adverse event that they experienced to the investigator. Beginning with Visit 2, investigators assessed for adverse events at each visit and recorded the event on the appropriate adverse event CRF.
Causality Assessment: The relationship of an adverse event to the administration of the study drug was assessed according to the following definitions: • No (unrelated, not related, no relation)—The time course between the administration of study drug and the occurrence or worsening of the adverse event rules out a causal relationship and another cause (concomitant drugs, therapies, complications, etc.) is suspected. • Yes (related, probably related, possibly related)—The time course between the administration of study drug and the occurrence or worsening of the adverse event is consistent with a causal relationship and no other cause (concomitant drugs, therapies, complications, etc.) can be identified.
Serious Adverse Events: A serious adverse event (SAE) is defined as an adverse event that meets any of the following criteria: • Results in death; • Is life-threatening—The term “life-threatening” in the definition of “serious” refers to an event in which the patient was at risk of death at the time of the event. […] Important medical events that may not result in death, be life threatening, or require hospitalization were considered an SAE when, based upon appropriate medical judgment, they may have jeopardized the patient and may have required medical or surgical intervention to prevent one of the outcomes listed above.
Analysis of Safety: All analyses of safety were conducted on the safety population, which was defined as all randomized patients. The safety assessment was based on the frequency of adverse events, physical exams, vital signs and safety laboratory tests. AEs with new onset during the study between the initiation of study drug and 30 days after the last dose of study drug for each patient was considered treatment-emergent (TEAEs). This included any AE with onset prior to initiation of study drug and increased severity after the treatment initiation.
This included overall incidence rates (regardless of severity and relationship to study drug), and incidence rates for moderate or severe adverse events. A summary of SAEs and adverse events leading to early discontinuation (for ≥30 days) were presented through data listings. Patients who restarted study drug were included in the summary of AEs leading to discontinuation.

CC/C=C\C/C=C\C/C=C\C/C=C\C/C=C\CCCC(=O)OCC [AMR101, eicosapentaenoic acid ethyl ester]
Patients with at least 1 TEAE, % (Age <65 years (N = 2232)): (77.3) %
TEAE: GI disorders, % (Age <65 years (N = 2232)): (27.9) %
TEAE: General disorders and administration site condition, % (Age <65 years (N = 2232)): (21.6) %
TEAE: Musculoskeletal and connective tissue disorders, % (Age <65 years (N = 2232)): (31.4) %
TEAE: Nervous system disorders, % (Age <65 years (N = 2232)): (20.3) %
TEAE: Respiratory, thoracic, and mediastinal disorders, % (Age <65 years (N = 2232)): (18.9) %
Patients with at least 1 TEAE, % (Age ≥65 years (N = 1857)): (87.1) %
TEAE: GI disorders, % (Age ≥65 years (N = 1857)): (39.2) %
TEAE: General disorders and administration site condition, % (Age ≥65 years (N = 1857)): (29.5) %
TEAE: Musculoskeletal and connective tissue disorders, % (Age ≥65 years (N = 1857)): (41.2) %
TEAE: Nervous system disorders, % (Age ≥65 years (N = 1857)): (29.7) %
TEAE: Respiratory, thoracic, and mediastinal disorders, % (Age ≥65 years (N = 1857)): (30.5) %
TEAEs, overall incidence (Asia Pacific region subgroup): 76.9%
TEAE class nervous system disorders, patients (Asian Pacific region subgroup): 20.8%
Patients with at least 1 TEAE, % (BMI <25 kg/m^2 (N = 320)): (80.6) %
TEAE: GI disorders, % (BMI <25 kg/m^2 (N = 320)): (33.8) %
TEAE: General disorders and administration site condition, % (BMI <25 kg/m^2 (N = 320)): (23.1) %
TEAE: Musculoskeletal and connective tissue disorders, % (BMI <25 kg/m^2 (N = 320)): (26.9) %
TEAE: Nervous system disorders, % (BMI <25 kg/m^2 (N = 320)): (22.8) %
TEAE: Respiratory, thoracic, and mediastinal disorders, % (BMI <25 kg/m^2 (N = 320)): (21.3) %
Patients with at least 1 TEAE, % [1]: (81.5) %
TEAE: GI disorders, % [1]: (30.8) %
TEAE: General disorders and administration site condition, % [1]: (24.0) %
TEAE: Musculoskeletal and connective tissue disorders, % [1]: (33.4) %
TEAE: Nervous system disorders, % [1]: (23.6) %
TEAE: Respiratory, thoracic, and mediastinal disorders, % [1]: (22.7) %
TEAE class GI disorders, patients (BMI ≥25 to <30 kg/m^2 subgroup): 30.8%
Patients with at least 1 TEAE, % (BMI ≥30 kg/m^2 (N = 2331)): (82.3) %
TEAE: GI disorders, % (BMI ≥30 kg/m^2 (N = 2331)): (34.3) %
TEAE: General disorders and administration site condition, % (BMI ≥30 kg/m^2 (N = 2331)): (26.3) %
TEAE: Musculoskeletal and connective tissue disorders, % (BMI ≥30 kg/m^2 (N = 2331)): (38.7) %
TEAE: Nervous system disorders, % (BMI ≥30 kg/m^2 (N = 2331)): (25.5) %
TEAE: Respiratory, thoracic, and mediastinal disorders, % (BMI ≥30 kg/m^2 (N = 2331)): (25.6) %
Patients with at least 1 TEAE, % (Baseline Ezetimibe (N = 262)): (92.0) %
TEAE: GI disorders, % (Baseline Ezetimibe (N = 262)): (37.4) %
TEAE: General disorders and administration site condition, % (Baseline Ezetimibe (N = 262)): (26.3) %
TEAE: Musculoskeletal and connective tissue disorders, % (Baseline Ezetimibe (N = 262)): (41.2) %
TEAE: Nervous system disorders, % (Baseline Ezetimibe (N = 262)): (23.7) %
TEAE: Respiratory, thoracic, and mediastinal disorders, % (Baseline Ezetimibe (N = 262)): (27.5) %
Patients with at least 1 TEAE, % (CV Risk Category 1 (N = 2892)): (81.6) %
TEAE: GI disorders, % (CV Risk Category 1 (N = 2892)): (31.3) %
TEAE: General disorders and administration site condition, % (CV Risk Category 1 (N = 2892)): (25.3) %
TEAE: Musculoskeletal and connective tissue disorders, % (CV Risk Category 1 (N = 2892)): (33.6) %
TEAE: Nervous system disorders, % (CV Risk Category 1 (N = 2892)): (23.4) %
TEAE: Respiratory, thoracic, and mediastinal disorders, % (CV Risk Category 1 (N = 2892)): (23.4) %
Patients with at least 1 TEAE, % (CV Risk Category 2 (N = 1197)): (82.1) %
TEAE: GI disorders, % (CV Risk Category 2 (N = 1197)): (37.2) %
TEAE: General disorders and administration site condition, % (CV Risk Category 2 (N = 1197)): (24.9) %
TEAE: Musculoskeletal and connective tissue disorders, % (CV Risk Category 2 (N = 1197)): (41.3) %
TEAE: Nervous system disorders, % (CV Risk Category 2 (N = 1197)): (27.4) %
TEAE: Respiratory, thoracic, and mediastinal disorders, % (CV Risk Category 2 (N = 1197)): (26.1) %
Patients with at least 1 TEAE, % (Female (N = 1162)): (79.9) %
TEAE: GI disorders, % (Female (N = 1162)): (38.3) %
TEAE: General disorders and administration site condition, % (Female (N = 1162)): (25.5) %
TEAE: Musculoskeletal and connective tissue disorders, % (Female (N = 1162)): (37.6) %
TEAE: Nervous system disorders, % (Female (N = 1162)): (27.6) %
TEAE: Respiratory, thoracic, and mediastinal disorders, % (Female (N = 1162)): (23.4) %
Patients with at least 1 TEAE, % (Male (N = 2927)): (82.5) %
TEAE: GI disorders, % (Male (N = 2927)): (30.9) %
TEAE: General disorders and administration site condition, % (Male (N = 2927)): (25.1) %
TEAE: Musculoskeletal and connective tissue disorders, % (Male (N = 2927)): (35.2) %
TEAE: Nervous system disorders, % (Male (N = 2927)): (23.3) %
TEAE: Respiratory, thoracic, and mediastinal disorders, % (Male (N = 2927)): (24.5) %
Patients with at least 1 TEAE, % [2]: (81.1) %
TEAE: GI disorders, % [2]: (32.7) %
TEAE: General disorders and administration site condition, % [2]: (25.1) %
TEAE: Musculoskeletal and connective tissue disorders, % [2]: (35.5) %
TEAE: Nervous system disorders, % [2]: (24.6) %
TEAE: Respiratory, thoracic, and mediastinal disorders, % [2]: (24.0) %
Patients with at least 1 TEAE, % (Race Non-white (N = 398)): (81.4) %
TEAE: GI disorders, % (Race Non-white (N = 398)): (28.9) %
TEAE: General disorders and administration site condition, % (Race Non-white (N = 398)): (25.4) %
TEAE: Musculoskeletal and connective tissue disorders, % (Race Non-white (N = 398)): (30.9) %
TEAE: Nervous system disorders, % (Race Non-white (N = 398)): (23.4) %
TEAE: Respiratory, thoracic, and mediastinal disorders, % (Race Non-white (N = 398)): (23.9) %
Patients with at least 1 TEAE, % (Race White (N = 3691)): (81.8) %
TEAE: GI disorders, % (Race White (N = 3691)): (33.5) %
TEAE: General disorders and administration site condition, % (Race White (N = 3691)): (25.2) %
TEAE: Musculoskeletal and connective tissue disorders, % (Race White (N = 3691)): (36.4) %
TEAE: Nervous system disorders, % (Race White (N = 3691)): (24.7) %
TEAE: Respiratory, thoracic, and mediastinal disorders, % (Race White (N = 3691)): (24.2) %
Patients with at least 1 TEAE, % (Region Asia Pacific (N = 130)): (76.9) %
TEAE: GI disorders, % (Region Asia Pacific (N = 130)): (18.5) %
TEAE: General disorders and administration site condition, % (Region Asia Pacific (N = 130)): (22.3) %
TEAE: Musculoskeletal and connective tissue disorders, % (Region Asia Pacific (N = 130)): (17.7) %
TEAE: Nervous system disorders, % (Region Asia Pacific (N = 130)): (20.8) %
TEAE: Respiratory, thoracic, and mediastinal disorders, % (Region Asia Pacific (N = 130)): (17.7) %
Patients with at least 1 TEAE, % [3]: (58.1) %
TEAE: GI disorders, % [3]: (11.9) %
Patients with at least 1 TEAE, % (Region Westernized (N = 2906)): (90.5) %
TEAE: GI disorders, % (Region Westernized (N = 2906)): (41.3) %
TEAE: General disorders and administration site condition, % (Region Westernized (N = 2906)): (32.2) %
TEAE: Musculoskeletal and connective tissue disorders, % (Region Westernized (N = 2906)): (46.4) %
TEAE: Nervous system disorders, % (Region Westernized (N = 2906)): (30.0) %
